Measured values from patent publication US20190045784A1 (priority 2016, published 2019).
Where two headings read alike, the source gives them in different places.

Experiments:
Format in all cases: cell-based
Settings in all cases: 7 days after inoculation
Botrytis cinerea = experiment: Activity against the grey mold Botrytis cinerea in the microtiter plate test (Botrci)
Alternaria solani = experiment: Activity against early blight caused by Alternaria solani (Alteso), microtiter test
Septoria tritici = experiment: Activity against leaf blotch on wheat caused by Septoria tritici (Septtr), microtiter test
Phytophthora infestans = tested on: Phytophthora infestans

`Cn1cc(C(=O)Nc2ccccc2-c2cc(F)c(F)c(F)c2)c(C(F)F)n1` [Fluxapyroxad, fluxapyroxad] showed an Observed efficacy (Botrytis cinerea; 0.016 ppm) of 0%, an Observed efficacy (Alternaria solani; 0.00025 ppm) of 7% and an Observed efficacy (Alternaria solani; 0.004 ppm) of 31%. The Observed efficacy (Alternaria solani; 0.016 ppm) was 69%, the Observed efficacy (Septoria tritici; 0.000063 ppm) was 1% and the Observed efficacy (Septoria tritici; 0.001 ppm) was 7%. The Observed efficacy (Septoria tritici; 0.004 ppm) was 9%, the Observed efficacy (Septoria tritici; 0.016 ppm) was 17% and the Observed efficacy (Phytophthora infestans; 0.016 ppm) was 2%. For the same compound, the Observed efficacy (Phytophthora infestans; 0.063 ppm) was 18%.
Work on `Cn1c(=O)c2sc3c(=O)n(C)c(=O)c3sc2c1=O` [No. I-2, 2,6-dimethyl-1H,5H-[1,4]dithiino[2,3-c:5,6-c′]dipyrrole-1,3,5,7(2H,6H)-tetraone] yielded an Observed efficacy (Alternaria solani; 0.25 ppm) of 14%, an Observed efficacy (Septoria tritici; 0.063 ppm) of 35% and an Observed efficacy (Phytophthora infestans; 0.25 ppm) of 0%. For the same compound, the Observed efficacy (Phytophthora infestans; 1 ppm) was 28%.
Work on `Nc1nc(OCc2ccc(F)cc2)ncc1F` [No. I-4, 5-fluoro-2-(4-fluorophenylmethoxy)pyrimidin-4 amine] yielded an Observed efficacy (Alternaria solani; 1 ppm) of 0%.
For `Cc1ccc(COc2ncc(F)c(N)n2)cc1` [No. I-5, 5-fluoro-2-(p-tolylmethoxy)pyrimidin-4-amine], the Observed efficacy (Botrytis cinerea; 16 ppm) was 24% and the Observed efficacy (Phytophthora infestans; 16 ppm) was 14%.
